Assay results taken from ChEMBL document CHEMBL3400063, “Novel pyrrole carboxamide inhibitors of JAK2 as potential treatment of myeloproliferative disorders” (Bioorg Med Chem, 2015).
Converted amounts (≈) assume the structure as drawn. Values belong to the molecule of their own block, whether it stands above or below them. The source made the active and inactive calls. The rule behind the calls is not given here.

Columns and labels:
[1] = Cytotoxicity against human SET2 cells expressing JAK2 assessed as growth inhibition after 72 hrs by Cell Titre-Glo assay; assay type: functional, cell-based; conditions: SET-2, 72 h
[2] = Cytotoxicity against human DERL7 cells expressing JAK1/3 assessed as growth inhibition after 72 hrs by Cell Titre-Glo assay; assay type: functional, cell-based; conditions: DERL7, 72 h
[3] = test system: A2780; experiment: Cytotoxicity against human A2780 cells expressing […] assessed as growth inhibition after 72 hrs by Cell Titre-Glo assay; assay type: functional, cell-based; conditions: A2780, 72 h
[4] = species on record: Homo sapiens; experiment: Selectivity ratio of IC50 for recombinant epitope-tagged JAK1 (861 to 1152) (unknown origin) to IC50 for recombinant epitope-tagged JAK2 (808 to 1132) (unknown origin)
[5] = species on record: Homo sapiens; experiment: Selectivity ratio of IC50 for recombinant epitope-tagged JAK3 (781 to 1124) (unknown origin) to IC50 for recombinant epitope-tagged JAK2 (808 to 1132) (unknown origin)
[6] = Solubility of the compound at pH 7; assay type: physicochemical; conditions: buffer
[7] = Cmax in Balb nu/nu mouse at 10 mg/kg, iv by LC/MS/MS analysis; assay type: ADME, organism-based; design: dose 10 mg/kg, route intravenous; conditions: in vivo
[8] = AUC (infinity) in Balb nu/nu mouse at 10 mg/kg, iv by LC/MS/MS analysis; assay type: ADME, organism-based; design: time infinity, dose 10 mg/kg, route intravenous; conditions: plasma
[9] = Clearance in Balb nu/nu mouse at 10 mg/kg, iv by LC/MS/MS analysis; assay type: ADME, organism-based; design: dose 10 mg/kg, route intravenous; conditions: in vivo
[10] = Volume of distribution at steady state in Balb nu/nu mouse at 10 mg/kg, iv by LC/MS/MS analysis; assay type: ADME, organism-based; design: dose 10 mg/kg, route intravenous; conditions: in vivo, read-out: Vdss
[11] = Half life in Balb nu/nu mouse at 10 mg/kg, iv by LC/MS/MS analysis; assay type: ADME, organism-based; design: dose 10 mg/kg, route intravenous; conditions: in vivo
[12] = Cmax in Balb nu/nu mouse at 10 mg/kg, po by LC/MS/MS analysis; assay type: ADME, organism-based; design: dose 10 mg/kg, route oral; conditions: in vivo
[13] = AUC (infinity) in Balb nu/nu mouse at 10 mg/kg, po by LC/MS/MS analysis; assay type: ADME, organism-based; design: dose 10 mg/kg, route oral, time infinity; conditions: plasma
[14] = Half life in Balb nu/nu mouse at 10 mg/kg, po by LC/MS/MS analysis; assay type: ADME, organism-based; design: dose 10 mg/kg, route oral; conditions: in vivo
[15] = Oral bioavailability in Balb nu/nu mouse at 10 mg/kg by LC/MS/MS analysis; assay type: ADME, organism-based; conditions: in vivo
[16] = target: Tyrosine-protein kinase JAK2 (Homo sapiens, UniProt O60674); experiment: Inhibition of recombinant epitope-tagged JAK2 (808 to 1132) (unknown origin) using LPLDKDYYVVREPGQ as substrate by beta-countiing analysis in presence of 33P-gamma-ATP
[17] = target: Tyrosine-protein kinase JAK1 (Homo sapiens) (UniProt P23458); experiment: Inhibition of JAK1 in human DERL7 cells assessed as inhibition of STAT5 phosphorylation after 2 hrs by SDS-PAGE analysis in presence of human IL-2; assay type: cell-based
[18] = target: T1, Tyrosine-protein kinase JAK3 (Homo sapiens) (UniProt P52333); experiment: Inhibition of JAK3 in human DERL7 cells assessed as inhibition of STAT5 phosphorylation after 2 hrs by SDS-PAGE analysis in presence of human IL-2; assay type: cell-based
T1 sequence (whole entry): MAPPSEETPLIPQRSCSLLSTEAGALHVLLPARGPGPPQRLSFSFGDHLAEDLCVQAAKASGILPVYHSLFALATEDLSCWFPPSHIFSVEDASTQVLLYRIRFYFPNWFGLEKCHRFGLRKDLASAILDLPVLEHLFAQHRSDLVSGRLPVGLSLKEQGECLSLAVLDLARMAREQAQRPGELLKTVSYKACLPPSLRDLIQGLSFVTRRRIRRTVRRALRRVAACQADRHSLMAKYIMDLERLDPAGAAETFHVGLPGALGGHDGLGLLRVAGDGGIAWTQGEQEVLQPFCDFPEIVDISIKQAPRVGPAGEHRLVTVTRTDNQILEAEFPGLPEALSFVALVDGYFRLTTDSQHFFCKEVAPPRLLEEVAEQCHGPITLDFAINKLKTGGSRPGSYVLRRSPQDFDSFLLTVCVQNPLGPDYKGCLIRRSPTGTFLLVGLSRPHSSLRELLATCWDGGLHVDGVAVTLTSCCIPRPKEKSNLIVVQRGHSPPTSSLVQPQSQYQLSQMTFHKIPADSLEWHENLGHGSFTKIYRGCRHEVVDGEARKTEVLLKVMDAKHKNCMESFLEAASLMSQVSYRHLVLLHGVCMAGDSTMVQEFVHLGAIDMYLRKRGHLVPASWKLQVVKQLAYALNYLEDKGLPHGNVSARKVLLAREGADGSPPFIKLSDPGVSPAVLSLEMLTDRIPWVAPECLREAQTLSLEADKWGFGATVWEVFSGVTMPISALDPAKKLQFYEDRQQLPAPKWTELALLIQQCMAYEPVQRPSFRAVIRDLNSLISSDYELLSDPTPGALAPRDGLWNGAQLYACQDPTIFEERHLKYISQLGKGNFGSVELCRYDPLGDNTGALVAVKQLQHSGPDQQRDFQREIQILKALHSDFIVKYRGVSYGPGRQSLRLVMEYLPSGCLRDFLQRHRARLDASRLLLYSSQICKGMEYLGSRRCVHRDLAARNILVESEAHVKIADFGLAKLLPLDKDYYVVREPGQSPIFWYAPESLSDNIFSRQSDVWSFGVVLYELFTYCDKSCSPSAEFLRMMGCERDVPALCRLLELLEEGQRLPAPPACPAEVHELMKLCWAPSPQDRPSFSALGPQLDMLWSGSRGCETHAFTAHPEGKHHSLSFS

[19] = Antitumor activity against human SET2 cells xenografted in SCID mouse assessed as tumor growth inhibition at 50 mg/kg, po bid for 10 days relative to control; assay type: functional; conditions: SET-2, 240 h, read-out: TGI
[20] = test system: Mus musculus; experiment: Toxicity in SCID mouse xenografted with human SET2 cells assessed as body weight loss at 50 mg/kg, po bid for 10 days; assay type: organism-based; design: dose 50 mg/kg, route oral; conditions: in vivo, 240 h
[21] = test system: Mus musculus; experiment: In vivo inhibition of JAK2 in SCID mouse xenografted with human SET2 cells assessed as inhibition of STAT5 phosphorylation at 50 mg/kg, po up to 6 hrs; assay type: functional, organism-based; design: dose 50 mg/kg
[22] = test system: Mus musculus; experiment: In vivo inhibition of JAK2 in SCID mouse xenografted with human SET2 cells assessed as inhibition of STAT5 phosphorylation at 50 mg/kg, po after 3 hrs; assay type: functional, organism-based; design: dose 50 mg/kg
[23] = test system: Mus musculus; experiment: In vivo inhibition of JAK2 in SCID mouse xenografted with human SET2 cells assessed as total STAT5 level at 50 mg/kg, po up to 6 hrs; assay type: functional, organism-based; design: dose 50 mg/kg
[24] = test system: Mus musculus; experiment: In vivo inhibition of JAK2 in SCID mouse xenografted with human SET2 cells assessed as total STAT5 level at 50 mg/kg, po after 3 hrs; assay type: functional, organism-based; design: dose 50 mg/kg

Chain of Tyrosine-protein kinase JAK2 (O60674 whole entry): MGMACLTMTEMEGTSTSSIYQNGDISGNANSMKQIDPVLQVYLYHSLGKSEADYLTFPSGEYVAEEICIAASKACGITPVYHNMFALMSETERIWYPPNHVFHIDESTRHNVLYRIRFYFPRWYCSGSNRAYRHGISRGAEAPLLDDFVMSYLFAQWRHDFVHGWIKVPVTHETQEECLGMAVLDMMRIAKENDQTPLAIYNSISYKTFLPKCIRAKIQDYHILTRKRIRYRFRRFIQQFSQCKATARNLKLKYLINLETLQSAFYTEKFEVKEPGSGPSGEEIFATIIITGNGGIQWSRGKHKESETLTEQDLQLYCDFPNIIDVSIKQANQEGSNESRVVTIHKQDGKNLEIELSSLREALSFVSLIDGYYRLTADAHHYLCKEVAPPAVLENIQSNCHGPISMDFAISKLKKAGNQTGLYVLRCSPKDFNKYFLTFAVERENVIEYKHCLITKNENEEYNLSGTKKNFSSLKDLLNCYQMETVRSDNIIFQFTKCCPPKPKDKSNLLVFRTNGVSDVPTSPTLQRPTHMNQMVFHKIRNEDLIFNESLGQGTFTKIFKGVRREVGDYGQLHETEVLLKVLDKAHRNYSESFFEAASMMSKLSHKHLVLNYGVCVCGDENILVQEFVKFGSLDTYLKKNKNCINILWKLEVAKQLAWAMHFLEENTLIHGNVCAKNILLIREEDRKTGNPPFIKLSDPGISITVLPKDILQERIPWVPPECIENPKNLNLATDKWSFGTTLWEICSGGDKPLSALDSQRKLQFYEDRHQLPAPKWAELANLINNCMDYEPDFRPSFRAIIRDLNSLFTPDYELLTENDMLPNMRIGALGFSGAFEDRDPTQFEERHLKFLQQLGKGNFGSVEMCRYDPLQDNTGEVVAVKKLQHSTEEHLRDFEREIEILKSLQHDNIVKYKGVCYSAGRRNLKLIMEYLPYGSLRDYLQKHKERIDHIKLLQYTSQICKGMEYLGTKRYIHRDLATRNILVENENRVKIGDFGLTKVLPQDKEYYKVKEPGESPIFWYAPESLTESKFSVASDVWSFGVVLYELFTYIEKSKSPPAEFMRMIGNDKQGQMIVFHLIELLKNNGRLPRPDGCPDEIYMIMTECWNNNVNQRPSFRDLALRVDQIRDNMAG
Chain of Tyrosine-protein kinase JAK1 (Homo sapiens) (P23458 whole entry): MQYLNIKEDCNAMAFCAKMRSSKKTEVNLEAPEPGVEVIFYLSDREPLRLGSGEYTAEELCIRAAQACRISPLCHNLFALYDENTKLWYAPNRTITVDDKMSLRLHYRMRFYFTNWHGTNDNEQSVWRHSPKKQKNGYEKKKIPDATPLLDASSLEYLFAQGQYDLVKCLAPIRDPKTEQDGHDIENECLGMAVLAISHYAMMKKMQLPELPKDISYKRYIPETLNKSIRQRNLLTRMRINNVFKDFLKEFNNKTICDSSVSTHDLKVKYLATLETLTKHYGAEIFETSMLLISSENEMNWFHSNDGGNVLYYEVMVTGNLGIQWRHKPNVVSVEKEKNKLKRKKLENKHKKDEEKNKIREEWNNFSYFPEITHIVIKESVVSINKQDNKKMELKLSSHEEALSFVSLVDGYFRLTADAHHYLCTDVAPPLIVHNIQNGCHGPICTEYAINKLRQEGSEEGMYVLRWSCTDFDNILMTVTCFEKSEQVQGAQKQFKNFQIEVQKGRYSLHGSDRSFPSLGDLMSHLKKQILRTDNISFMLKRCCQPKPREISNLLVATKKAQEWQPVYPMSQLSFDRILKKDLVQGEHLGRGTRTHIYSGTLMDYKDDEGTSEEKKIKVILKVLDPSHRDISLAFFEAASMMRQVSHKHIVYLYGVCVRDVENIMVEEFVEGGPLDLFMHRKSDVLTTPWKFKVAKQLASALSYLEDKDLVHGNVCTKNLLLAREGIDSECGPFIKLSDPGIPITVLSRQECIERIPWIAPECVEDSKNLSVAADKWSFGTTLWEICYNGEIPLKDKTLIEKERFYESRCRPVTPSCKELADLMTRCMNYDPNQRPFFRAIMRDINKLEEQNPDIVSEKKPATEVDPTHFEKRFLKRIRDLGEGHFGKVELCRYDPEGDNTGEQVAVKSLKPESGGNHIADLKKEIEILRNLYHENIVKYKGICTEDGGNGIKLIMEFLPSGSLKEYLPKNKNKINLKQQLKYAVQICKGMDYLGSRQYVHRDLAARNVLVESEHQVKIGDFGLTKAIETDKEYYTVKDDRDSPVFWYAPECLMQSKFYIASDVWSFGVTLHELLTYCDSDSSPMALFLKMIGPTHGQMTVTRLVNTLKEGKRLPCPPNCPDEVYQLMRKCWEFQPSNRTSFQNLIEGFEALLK

Structure (SMILES): CCc1ccc(Cl)cc1-n1cc(-c2ncnc3[nH]ccc23)cc1C(N)=O
IC50 [1]: 30 nM
IC50 [2]: 20 nM
IC50 [3]: > 5000 nM

Structure (SMILES): Cc1ccc(Cl)cc1-c1ncc(-c2ccnc(N)n2)[nH]1
IC50 [16]: 1070 nM

Structure (SMILES): Cc1ccc(Cl)cc1-n1cc(-c2ccnc(N)n2)cc1C(N)=O
IC50 [16]: 216 nM

Structure (SMILES): NC(=O)c1cc(-c2cc(N)ncn2)cn1-c1cc(C(F)(F)F)ccc1Cl
IC50 [1]: 1570 nM

Structure (SMILES): NC(=O)c1cc(-c2ncnc3[nH]ccc23)cn1-c1cc(C(F)(F)F)ccc1Cl
Ratio IC50 [4]: 4
Ratio IC50 [5]: 4
IC50 [1]: 60 nM
IC50 [2]: 150 nM
IC50 [3]: > 10000 nM

Structure (SMILES): Cc1ccc(Cl)cc1-c1cc(-c2cc(N)ncn2)[nH]c1C(N)=O
IC50 [16]: 690 nM

Structure (SMILES): Cc1ccc(Cl)cc1-c1cn(-c2ncnn3cccc23)cc1C(N)=O
IC50 [16]: 2910 nM

Structure (SMILES): Cc1ccc(Cl)cc1-n1cc(-c2ncnn3cccc23)cc1C(N)=O
IC50 [1]: 1920 nM

Structure (SMILES): Cc1ccc(Cl)cc1-c1[nH]c(-c2ccnc(N)n2)cc1C(N)=O
IC50 [1]: 430 nM
IC50 [2]: 740 nM

Structure (SMILES): Cc1ccc(Cl)cc1-c1cc(-c2ncnc3[nH]ccc23)[nH]c1C(N)=O
IC50 [16]: 9 nM
Ratio IC50 [4]: 5
Ratio IC50 [5]: 6
IC50 [1]: 460 nM
IC50 [2]: 7300 nM
IC50 [3]: 9400 nM
solubility [6]: 3 µM (≈ 1.06 µg/mL)

More lines, main results first:

Ratio IC50 [4]: 3
Ratio IC50 [5]: 5
solubility [6]: 40 µM (≈ 14.1 µg/mL)
Cmax [7]: 51 µM
AUC(0-inf) [8]: 26.2 µM·h
clearance [9]: 17 mL/min/kg
Vd [10]: 0.7 L/kg
half-life [11]: 5 h
Cmax [12]: 0.69 µM
AUC(0-inf) [13]: 1.6 µM·h
half-life [14]: 3 h
bioavailability [15]: 8%
Structure (SMILES): Cc1ccc(Cl)cc1-n1cc(-c2ncnc3[nH]ccc23)cc1C(N)=O
IC50 [1]: 80 nM
IC50 [2]: 460 nM
IC50 [3]: 7400 nM

Ratio IC50 [4]: 7
Ratio IC50 [5]: 15
solubility [6]: 25 µM (≈ 9.15 µg/mL)
Cmax [7]: 12.4 µM
AUC(0-inf) [8]: 8.4 µM·h
clearance [9]: 51 mL/min/kg
Vd [10]: 5.8 L/kg
half-life [11]: 5.5 h
Cmax [12]: 0.04 µM
AUC(0-inf) [13]: 0.07 µM·h
half-life [14]: 3.7 h
bioavailability [15]: 1%
Structure (SMILES): CCc1ccc(Cl)cc1-n1cc(-c2ncnn3cccc23)cc1C(N)=O
IC50 [1]: 660 nM
IC50 [2]: 2140 nM
IC50 [3]: > 10000 nM

Ratio IC50 [4]: 9
Ratio IC50 [5]: 11
solubility [6]: 111 µM (≈ 39.5 µg/mL)
Cmax [7]: 32 µM
AUC(0-inf) [8]: 37.4 µM·h
clearance [9]: 12 mL/min/kg
Vd [10]: 1.4 L/kg
half-life [11]: 5.4 h
Cmax [12]: 1.6 µM
AUC(0-inf) [13]: 2.9 µM·h
half-life [14]: 2.4 h
bioavailability [15]: 9%
Structure (SMILES): CCc1ccc(Cl)cc1-n1cc(-c2cc(NC)ncn2)cc1C(N)=O
IC50 [1]: 500 nM
IC50 [2]: 1720 nM
IC50 [3]: > 10000 nM

IC50 [16]: 331 nM
Structure (SMILES): CNc1cc(-c2cc(C(N)=O)n(-c3cc(C(F)(F)F)ccc3Cl)c2)ncn1

IC50 [16]: 3 nM
Ratio IC50 [4]: 6
Ratio IC50 [5]: 7
Structure (SMILES): CCc1ccc(Cl)cc1-c1cc(-c2ncnc3[nH]ccc23)[nH]c1C(N)=O
IC50 [1]: 320 nM
IC50 [2]: 1100 nM
IC50 [3]: 1600 nM

IC50 [16]: 369 nM
Structure (SMILES): Cc1ccc(Cl)cc1-c1cn(-c2cc(N)ncn2)cc1C(N)=O

IC50 [16]: 131 nM
Structure (SMILES): CNc1cc(-c2cc(C(N)=O)n(-c3cc(Cl)ccc3C)c2)ncn1

IC50 [16]: 220 nM
Structure (SMILES): Cc1ccc(Cl)cc1-c1cn(-c2ccnc(N)n2)cc1C(N)=O

IC50 [16]: > 10000 nM
Structure (SMILES): Cc1ccc(Cl)cc1-n1nc(-c2ccnc(N)n2)cc1C(N)=O

IC50 [16]: 950 nM
Structure (SMILES): Cc1ccc(Cl)cc1-n1cc(-c2ccnc(N)n2)cn1

IC50 [16]: 16 nM
Ratio IC50 [4]: 5
Ratio IC50 [5]: 14
solubility [6]: 2 µM (≈ 0.704 µg/mL)
Structure (SMILES): Cc1ccc(Cl)cc1-c1cn(-c2ncnc3[nH]ccc23)cc1C(N)=O
IC50 [1]: 500 nM
IC50 [2]: > 10000 nM
IC50 [3]: > 10000 nM

IC50 [16]: 620 nM
Structure (SMILES): CNc1cc(-n2cc(C(N)=O)c(-c3cc(Cl)ccc3C)c2)ncn1

solubility [6]: 128 µM (≈ 43.8 µg/mL)
Cmax [7]: 45.9 µM
AUC(0-inf) [8]: 49.2 µM·h
clearance [9]: 8.3 mL/min/kg
Vd [10]: 0.6 L/kg
half-life [11]: 2 h
Cmax [12]: 12.5 µM
AUC(0-inf) [13]: 21 µM·h
half-life [14]: 2.6 h
bioavailability [15]: 50%
inhibition [17]: Active
inhibition [18]: Active
Structure (SMILES): CCc1ccc(Cl)cc1-n1cc(-c2cc(N)ncn2)cc1C(N)=O
IC50 [2]: 2730 nM
inhibition in vivo at 50 mg/kg [19]: 41%
Activity [20]: Non-toxic
inhibition [21]: Active
inhibition [22]: Active
inhibition [23]: inactive
inhibition [24]: inactive

IC50 [16]: 972 nM
Structure (SMILES): Cc1ccc(Cl)cc1-c1ccc(-c2ccnc(N)n2)[nH]1
